Format in all cases: in vivo
Series [1] has as its system Yellow Fever Mosquito (Aedes aegypti, AEDSAE). To be noted: about 1 day-old larvae, 3 days, room temperature, scored on mortality. As to the method: Example C: Bioassays on Yellow Fever Mosqurro (Aedes aegypti, AEDSAE) (“YFM”)
Certain molecules disclosed in this document were tested against YFM using procedures described in the following paragraph. In the reporting of the results, the “GPA & YFM Rating Table” was used (See Table Section).
Master plates containing 400 μg of a molecule dissolved in 100 μL of dimethyl sulfoxide (DMSO) (equivalent to a 4000 ppm solution) are used. A master plate of assembled molecules contains 15 μL per well. To this plate, 135 μL of a 90:10 water:acetone mixture is added to each well. A robot (Biomek® NXP Laboratory Automation Workstation) is programmed to dispense 15 μL aspirations from the master plate into an empty 96-well shallow plate (“daughter” plate). There are 6 reps (“daughter” plates) created per master. The created daughter plates are then immediately infested with YFM larvae.
The day before plates are to be treated, mosquito eggs are placed in Millipore water containing liver powder to begin hatching (4 g. into 400 mL). After the daughter plates are created using the robot, they are infested with 220 μL of the liver powder/larval mosquito mixture (about 1 day-old larvae). After plates are infested with mosquito larvae, a non-evaporative lid is used to cover the plate to reduce drying. Plates are held at room temperature for 3 days prior to grading. After 3 days, each well is observed and scored based on mortality. The results are indicated in the table entitled “Table ABC: Biological Results” (See Table Section).

Series [2] concerns Cabbage Looper (Trichoplusia ni, TRIPNI). The series is described as follows: Bioassay on Cabbage Looper (CL), 128-well diet tray assay. To be noted: for mortality at 50 µg/cm2: 168 h, 50 μg/cm^2 on artificial diet, second instar larvae, five to seven days, 25° C., read-out: CL % Control (or Mortality) rating. In outline: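 Percent mortality, averaged over eight wells, scored after five to seven days at 25° C. under 14:10 light-dark. Each well held 1–5 second-instar larvae on artificial diet treated with 50 μg/cm^2 test molecule applied in 90:10 acetone-water and dried.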

Series [3] concerns Beet Armyworm (Spodoptera exigua, LAPHEG). The experiment in a line: Bioassay on Beet Armyworm (BAW), 128-well diet tray assay. To be noted: for mortality at 50 µg/cm2: 168 h, 50 μg/cm^2 on artificial diet, second instar larvae, five to seven days, 25° C., read-out: BAW % Control (or Mortality) rating. In outline: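 Mortality of second-instar larvae (one to five per well) was scored after five to seven days at 25 °C under 14:10 light-dark and averaged across eight wells. Each well's diet had received 50 μg/cm^2 test molecule from a 90:10 acetone-water solution, allowed to dry before infestation.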

Where two headings read alike, the source gives them in different places.

As usually defined, the mortality is the percentage killed.

In the case of `C[C@H](CS(=O)(=O)CC(F)(F)F)NC(=O)c1ccc(/C(F)=C/C(c2cc(Cl)cc(Cl)c2)C(F)(F)F)cc1C(F)(F)F` (stereo partly drawn) [F17, 4-((Z)-3-(3,5-dichlorophenyl)-1,4,4,4-tetrafluorobut-1-en-1-yl)-N—((R)-1-((2,2,2-trifluoroethyl)sulfonyl)propan-2-yl)-2-(trifluoromethyl)benzamide], in series [1], the “YFM % Control (or Mortality) rating” value is on record as “A (80-100)”. Besides, the mortality at 50 µg/cm2 in series [2] and in series [3] was 50 to 100% throughout.
`C[C@H](CS(=O)(=O)CC(F)(F)F)NC(=O)c1ccc(/C(F)=C/C(c2ccc(Cl)c(Cl)c2)C(F)(F)F)cc1C(F)(F)F` (stereo partly drawn) [F18, 4-((Z)-3-(3,4-Dichlorophenyl)-1,4,4,4-tetrafluorobut-1-en-1-yl)-N—((R)-1-((2,2,2-trifluoroethyl)sulfonyl)propan-2-yl)-2-(trifluoromethyl)benzamide]: the “YFM % Control (or Mortality) rating” value in series [1] is given as “A (80-100)”. The mortality at 50 µg/cm2 in series [2] and in series [3] was 50 to 100% in each case.
In the case of `C[C@H](CSCC(F)(F)F)NC(=O)c1ccc(/C(F)=C/C(c2cc(Cl)cc(Cl)c2)C(F)(F)F)cc1C(F)(F)F` (stereo partly drawn) [F19, 4-((Z)-3-(3,5-Dichlorophenyl)-1,4,4,4-tetrafluorobut-1-en-1-yl)-N—((R)-1-((2,2,2-trifluoroethyl)thio)propan-2-yl)-2-(trifluoromethyl)benzamide], the “YFM % Control (or Mortality) rating” value in series [1] is recorded as “A (80-100)”. In addition, the mortality at 50 µg/cm2 in series [2] and in series [3] was 50 to 100% in each case.
For `C[C@H](CSCC(F)(F)F)NC(=O)c1ccc(/C(F)=C/C(c2ccc(Cl)c(Cl)c2)C(F)(F)F)cc1C(F)(F)F` (stereo partly drawn) [F20, 4-((Z)-3-(3,4-Dichlorophenyl)-1,4,4,4-tetrafluorobut-1-en-1-yl)-N—((R)-1-((2,2,2-trifluoroethyl)thio)propan-2-yl)-2-(trifluoromethyl)benzamide], in series [1], the “YFM % Control (or Mortality) rating” value is “D (No activity noticed in this bioassay)”. The mortality at 50 µg/cm2 in series [2] and in series [3] was 50 to 100% throughout.
Take `C[C@H](C[S+]([O-])CC(F)(F)F)NC(=O)c1ccc(/C(F)=C/C(c2cc(Br)c(Cl)c(Br)c2)C(F)(F)F)cc1C(F)(F)F` (stereo partly drawn) [F23, 4-((Z)-3-(3,5-Dibromo-4-chlorophenyl)-1,4,4,4-tetrafluorobut-1-en-1-yl)-N-((2R)-1-((2,2,2-trifluoroethyl)sulfinyl)propan-2-yl)-2-(trifluoromethyl)benzamide]: the “YFM % Control (or Mortality) rating” value in series [1] is “A (80-100)”. For the same molecule, the mortality at 50 µg/cm2 in series [2] and in series [3] was 50 to 100% throughout.
For `C[C@H](CS(=O)(=O)CC(F)(F)F)NC(=O)c1ccc(/C(F)=C/C(c2cc(Cl)c(Br)c(Cl)c2)C(F)(F)F)cc1C(F)(F)F` (stereo partly drawn) [F25, 4-((Z)-3-(4-Bromo-3,5-dichlorophenyl)-1,4,4,4-tetrafluorobut-1-en-1-yl)-N—((R)-1-((2,2,2-trifluoroethyl)sulfonyl)propan-2-yl)-2-(trifluoromethyl)benzamide], the “YFM % Control (or Mortality) rating” value in series [1] is on record as “A (80-100)”. Moreover, the mortality at 50 µg/cm2 in series [2] and in series [3] was 50 to 100% in each case.
For `CCS(=O)(=O)C[C@@H](C)NC(=O)c1ccc(/C(F)=C/C(c2cc(Br)c(Cl)c(Br)c2)C(F)(F)F)cc1C(F)(F)F` (stereo partly drawn) [F56, 4-((Z)-3-(3,5-Dibromo-4-chlorophenyl)-1,4,4,4-tetrafluorobut-1-en-1-yl)-N—((R)-1-(ethylsulfonyl)propan-2-yl)-2-(trifluoromethyl)benzamide], the “YFM % Control (or Mortality) rating” value in series [1] is recorded as “A (80-100)”.
`C[C@H](CS(=O)(=O)CC(F)(F)F)NC(=O)c1ccc(/C(F)=C/C(c2cc(F)c(F)c(F)c2)C(F)(F)F)cc1C(F)(F)F` (stereo partly drawn) [F133, 4-((Z)-1,4,4,4-Tetrafluoro-3-(3,4,5-trifluorophenyl)but-1-en-1-yl)-N—((R)-1-((2,2,2-trifluoroethyl)sulfonyl)propan-2-yl)-2-(trifluoromethyl)benzamide]: the mortality at 50 µg/cm2 in series [2] and in series [3] was 50 to 100% in each case.
For the molecule `C[C@H](CS(=O)(=O)CC(F)(F)F)NC(=O)c1ccc(/C(F)=C/[C@@H](c2cc(Cl)c(Cl)c(Cl)c2)C(F)(F)F)cc1C(F)(F)F` [F136, 4-((S,Z)-1,4,4,4-tetrafluoro-3-(3,4,5-trichlorophenyl)but-1-en-1-yl)-N—((R)-1-((2,2,2-trifluoroethyl)sulfonyl)propan-2-yl)-2-(trifluoromethyl)benzamide], the mortality at 50 µg/cm2 in series [2] and in series [3] was 50 to 100% throughout.
As to `C[C@H](CSCCC(F)(F)F)NC(=O)c1ccc(/C(F)=C/C(c2cc(Cl)c(Cl)c(Cl)c2)C(F)(F)F)cc1C(F)(F)F` (stereo partly drawn) [F137, 4-((Z)-1,4,4,4-Tetrafluoro-3-(3,4,5-trichlorophenyl)but-1-en-1-yl)-2-(trifluoromethyl)-N—((R)-1-((3,3,3-trifluoropropyl)thio)propan-2-yl)benzamide], the mortality at 50 µg/cm2 in series [2] and in series [3] was 50 to 100% in each case.
As for `O=C(NCC[S+]([O-])CCF)c1ccc(/C(F)=C/C(c2cc(Cl)c(Cl)c(Cl)c2)C(F)(F)F)cc1C(F)(F)F` (stereo not shown) [F138, (Z)—N-(2-((2-Fluoroethyl)sulfinyl)ethyl)-4-(1,4,4,4-tetrafluoro-3-(3,4,5-trichlorophenyl)but-1-en-1-yl)-2-(trifluoromethyl)benzamide], the mortality at 50 µg/cm2 in series [2] and in series [3] was 50 to 100% throughout.
On to `C[C@H](CS(=O)(=O)CC(F)(F)F)NC(=O)c1ccc(/C(F)=C/C(c2cc(Cl)c(Cl)c(Cl)c2)C(C)(F)F)cc1` (stereo partly drawn) [FC1, 4-((Z)-1,4,4-Trifluoro-3-(3,4,5-trichlorophenyl)pent-1-en-1-yl)-N—((R)-1-((2,2,2-trifluoroethyl)sulfonyl)propan-2-yl)benzamide], for which the mortality at 0.05 µg/cm2 amounted to 0% in series [2] (0.05 μg/cm^2, read-out: CL Percent control (or mortality)) and 0% in series [3] (0.05 μg/cm^2, read-out: BAW Percent control (or mortality)). In addition, the mortality at 0.5 µg/cm2 in series [2] (0.5 μg/cm^2, read-out: CL Percent control (or mortality)) worked out at 81%; in series [3] (0.5 μg/cm^2, read-out: BAW Percent control (or mortality)) it was 20%. For the same molecule, the mortality at 5 µg/cm2 in series [2] (5 μg/cm^2, read-out: CL Percent control (or mortality)) was found to be 100%; in series [3] (5 μg/cm^2, read-out: BAW Percent control (or mortality)), 100%.
In the case of `C[C@H](CSCC(F)(F)F)NC(=O)c1ccc(/C(F)=C/C(c2cc(Cl)c(Cl)c(Cl)c2)C(C)(F)F)cc1` (stereo partly drawn) [FC2, 4-((Z)-1,4,4-Trifluoro-3-(3,4,5-trichlorophenyl)pent-1-en-1-yl)-N—((R)-1-((2,2,2-trifluoroethyl)thio)propan-2-yl)benzamide], the mortality at 0.05 µg/cm2 is 0% in series [2] (0.05 μg/cm^2, Table CD2 comparative data, read-out: Percent control (or mortality) CL) and 0% in series [3] (0.05 μg/cm^2, Table CD2 comparative data, read-out: Percent control (or mortality) BAW). For the same molecule, the mortality at 0.5 µg/cm2 in series [2] (0.5 μg/cm^2, Table CD2 comparative data, read-out: Percent control (or mortality) CL) stood at 0%; in series [3] (0.5 μg/cm^2, Table CD2 comparative data, read-out: Percent control (or mortality) BAW), 20%. For the same molecule, the mortality at 5 µg/cm2 in series [2] (5 μg/cm^2, Table CD2 comparative data, read-out: Percent control (or mortality) CL) was 100%; in series [3] (5 μg/cm^2, Table CD2 comparative data, read-out: Percent control (or mortality) BAW) it was 100%.
As for `C[C@H](CS(=O)(=O)CC(F)(F)F)NC(=O)c1ccc(/C(F)=C/C(c2ccc(Cl)c(F)c2)C(F)(F)F)cc1C(F)(F)F` (stereo partly drawn) [PF4, 4-((Z)-3-(4-Chloro-3-fluorophenyl)-1,4,4,4-tetrafluorobut-1-en-1-yl)-N—((R)-1-((2,2,2-trifluoroethyl)sulfonyl)propan-2-yl)-2-(trifluoromethyl)benzamide], the mortality at 50 µg/cm2 in series [2] and in series [3] was 50 to 100% throughout.
On to `Cc1cc(C(/C=C(\F)c2ccc(C(=O)N[C@H](C)CS(=O)(=O)CC(F)(F)F)c(C(F)(F)F)c2)C(F)(F)F)ccc1Cl` (stereo partly drawn) [PF8, 4-((Z)-3-(4-Chloro-3-methylphenyl)-1,4,4,4-tetrafluorobut-1-en-1-yl)-N—((R)-1-((2,2,2-trifluoroethyl)sulfonyl)propan-2-yl)-2-(trifluoromethyl)benzamide], for which the mortality at 50 µg/cm2 in series [2] and in series [3] was 50 to 100% in each case.

The values above are taken from US10681908B2, “Molecules having pesticidal utility, and intermediates, compositions, and processes, related thereto” (Dow AgroSciences LLC, priority 2016, dated 2020).
